pIC50: −log10 of the molar value. Like-named read-outs stand apart in the source and are kept apart here.
Experiments:
Type in all cases: cell-based, human
[1] = tested on: EPO-induced JAK2 signal pathway; test: EPO-induced proliferation of UT-7 cells (JAK2 signal); conditions: Homo sapiens, UT7; UT-7 cell proliferation, EPO 10 ng/mL, 72 hours; read-out: Inhibition activity IC50 on EPO-induced JAK2 signal pathway
Method in brief: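 UT-7 cells (15000/well) stimulated with 10 ng/mL human recombinant EPO plus compound at final 0, 100, 1000 or 10000 nM, 72 h at 37° C., 5% CO2. Proliferation by alamarBlue fluorescence (Ex530/Em590); inhibition normalised to no-cytokine/no-compound (0) and EPO-only (100) wells, […] derived from dose-inhibition.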

[2] = tested on: IL-10-induced JAK1/TYK2 signal pathway; test: IL-10-induced JAK1/TYK2 signal pathway STAT3-Luc reporter gene assay in U2OS cells; conditions: Homo sapiens, U2OS cells, STAT3-Luc reporter, IL-10 10 ng/mL, read-out: Half inhibition dose (IC50) on IL-10-induced JAK1/TYK2 signal pathway
From the text: Cytokine IL-10 is one of the main members of IL-10 family. The receptor that cytokine IL-10 binds to consists of two kinds of subunits, i.e., IL-10R1 and IL-10R2, which respectively couple with JAK1 and TYK2. After the coupling of IL-10 with its receptor, interaction of phosphorylation occurs between JAK1 and TYK2 to form STAT3 docking site for phosphorylation of STAT3. The phosphorylated STAT3 enters the nucleus and drives the transcription and expression of downstream genes.
The reporter gene plasmid STAT3-Luc Reporter used in the present invention has luciferase expression sequence as the reporter gene, upstream of which is a promoter sequence containing multiple STAT3 binding sites. When phosphorylated STAT3 induced by IL-10 signal pathway binds to the promoter of STAT3-Luc Reporter plasmid, luciferase is transcribed and expressed. The excitation fluorescence catalyzed by Luciferase can be detected after the addition of […] substrate, whose intensity can quantitively reflect the activation level of the signal pathway.
Human osteosarcoma cell line U20S was commercially available from American Type Culture Collection (ATCC), and relevant culture conditions referred to those from ATCC. It was known that such cell line could express IL-10R2, JAK1, TYK2 and STAT3, therefore, by exogenous expression of IL-10R1 gene, a complete IL-10 signal pathway could be established. The human IL-10R1 subunit overexpression plasmid pCMV3-IL10RA-EGFP was constructed by Shanghai Genechem Co., Ltd., and capable of simultaneously expressing enhanced green fluorescent protein. In the subsequent detection and calculation, the signal of green fluorescent protein in the tested sample was used as a reference for transfection efficiency calibration of the luciferase reporter gene signal. Reporter plasmid STAT3-Luc Reporter was commercially available from Ji Man Biotech (Shanghai) Co., Ltd.
X-tremeGENE 9 DNA Transfection Reagent (Roche) was used for the transfection of plasmid DNA into cells, Cell Culture Lysis 5× reagent (Promega) and Luciferase Assay System (Promega) were used in cell lysate preparation and enzyme-substrate reaction for luciferase reporter gene detection. Green fluorescent protein signal and luciferase reporter gene signal were both detected by Tecan Spark™ 10M multimode microplate reader. The inhibition rate of the tested compound on the IL-10 signal pathway reporter gene signal and the half inhibition dose IC50 were both calculated using Microsoft Excel and GraphPad Prism 7.00 software.
U2OS cell line was inoculated in 96-well plate with flat bottom at 5000 cells per well, and cultured overnight at 37° C. and 5% CO2 followed by plasmid transfection. Following the instructions and using X-tremeGENE 9 DNA Transfection Reagent, pCMV3-IL10RA-EGFP and STAT3-Luc Reporter plasmids were co-transfected into the inoculated U2OS cells. After 24 hours of transfection, the tested compound was added respectively for a final concentration of 0, 0.1, 0.3, 1, 3, 10, 30, 100, or 300 nM. After 6 hours of culture at 37° C. and 5% CO2, IL-10 cytokine (Human IL-10 PEPROTECH 200-10-10UG) was added to each well for a final concentration of 10 ng/mL, the well in which neither compound nor cytokine was added was designated as 0% control well. The culture was continued for 24 hours before testing.
Cell lysate was prepared by using Cell Culture Lysis reagent and transferred to 96-well plate with half-well clear bottom. The green fluorescent protein signal value was detected at Ex485/Em520 using Tecan microplate reader, and recorded. After adding to each well the luciferase substrate from Luciferase Assay System, the signal value of luciferase-substrate reaction was immediately detected at 560 nm using Tecan microplate reader, and recorded.
Using Microsoft Excel software, the signal value of luciferase-substrate reaction of each well was calculated and calibrated based on the signal value of green fluorescent protein of each well. […]

[3] = tested on: IL-2-induced JAK1/JAK3 signal pathway; test: IL-2-induced proliferation of KHYG-1 cells (JAK1/JAK3 signal); conditions: Homo sapiens; KHYG-1 cell proliferation, IL-2 10 ng/mL, 72 hours; read-out: Inhibition activity IC50 on IL-2-induced JAK1/JAK3 signal pathway
Method in brief: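 KHYG-1 NK lymphoma cells were cultured with IL-2 and test compound at various doses for 72 h at 37 °C and 5% CO2, and proliferation was read with alamarBlue fluorescence. Inhibition was normalized to wells without compound or cytokine (0%) and IL-2 wells without compound (100%), and C50 was derived from the dose-inhibition data.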

pIC50 ([2]; U2OS) | Structure (SMILES) | pIC50 [1] | pIC50 [3] | pIC50 [2]
8.80 | CONC(=O)c1cnc(NC(=O)C2CC2)cc1Nc1ccccc1N(C)S(C)(=O)=O [Example 2, 6-(cyclopropylcarboxamido)-N-methoxy-4-((2-(N-methylmethanesulfonamido)phenyl)amino)nicotinamide] | < 5.00 | < 5.00 | 
9.15 | CONC(=O)c1cnc(Nc2ccc(F)cn2)cc1Nc1ccccc1N(C)S(C)(=O)=O [Example 4, 6-((5-fluoropyridin-2-yl)amino)-N-methoxy-4-((2-(N-methylmethanesulfonamido)phenyl)amino)nicotinamide] | < 5.00 | < 5.00 | 
 | CONC(=O)c1cnc(NC(=O)C2CC2)cc1Nc1ccc(C(F)(F)F)cc1N(C)S(C)(=O)=O [Example 10, 6-(cyclopropylcarboxamido)-N-methoxy-4-((2-(N-methylmethanesulfonamido)-4-(trifluoromethyl)phenyl)amino)nicotinamide] | < 5.00 | < 5.00 | 8.93
 | CONC(=O)c1cnc(NC(=O)C2CC2)cc1Nc1ccc(C2CC2)cc1N(C)S(C)(=O)=O [Example 12, 6-(cyclopropylcarboxamido)-4-((4-cyclopropyl-2-(N-methylmethanesulfonamido)phenyl)amino)-N-methoxy nicotinamide] | < 5.00 | < 5.00 | 9.02
8.96 | CONC(=O)c1cnc(Nc2ccc(F)cn2)cc1Nc1ccc(C2CC2)cc1N(C)S(C)(=O)=O [Example 13, 4-((4-cyclopropyl-2-(N-methylmethanesulfonamido)phenyl)amino)-6-((5-fluoropyridin-2-yl)amino)-N-methoxy nicotinamide] | < 5.00 | < 5.00 | 
9.06 | CONC(=O)c1cnc(Nc2cccc(F)n2)cc1Nc1ccc(C2CC2)cc1N(C)S(C)(=O)=O [Example 14, 4-((4-cyclopropyl-2-(N-methylmethanesulfonamido)phenyl)amino)-6-((6-fluoropyridin-2-yl)amino)-N-methoxy nicotinamide] | < 5.00 | < 5.00 | 
 | CCONC(=O)c1cnc(Nc2ccc(C3CC3)cn2)cc1Nc1ccc(Cl)cc1N(C)S(C)(=O)=O [Example 152, 4-((4-chloro-2-(N-methylmethanesulfonamido)phenyl)amino)-6-((5-cyclopropylpyridin-2-yl)amino)-N-ethoxy nicotinamide] | < 5.00 | < 5.00 | 
 | CCONC(=O)c1cnc(Nc2nccs2)cc1Nc1ccc(C2CC2)cc1N(C)S(C)(=O)=O [Example 158, 4-((4-cyclopropyl-2-(N-methylmethanesulfonamido)phenyl)amino)-N-ethoxy-6-(thiazol-2-ylamino)nicotinamide] | < 5.00 | < 5.00 | 
 | CCONC(=O)c1cnc(Nc2ccnn2C)cc1Nc1ccc(C2CC2)cc1N(C)S(C)(=O)=O [Example 161, 4-((4-cyclopropyl-2-(N-methylmethanesulfonamido)phenyl)amino)-N-ethoxy-6-((1-methyl-1H-pyrazol-5-yl)amino)nicotinamide] | < 5.00 | < 5.00 | 
 | C#Cc1ccc(Nc2cc(Nc3ncccn3)ncc2C(=O)NOCC)c(N(C)S(C)(=O)=O)c1 [Example 163, N-ethoxy-4-((4-ethynyl-2-(N-methylmethanesulfonamido)phenyl)amino)-6-(pyrimidin-2-ylamino)nicotinamide] | < 5.00 | < 5.00 | 
 | C#Cc1ccc(Nc2cc(Nc3nc(C)cc(C)n3)ncc2C(=O)NOCC)c(N(C)S(C)(=O)=O)c1 [Example 164, 6-((4,6-dimethylpyrimidin-2-yl)amino)-N-ethoxy-4-((4-ethynyl-2-(N-methylmethanesulfonamido)phenyl)amino)nicotinamide] | < 5.00 | < 5.00 | 
 | CCONC(=O)c1cnc(Nc2nc(C)cs2)cc1Nc1ccc(C)cc1N(C)S(C)(=O)=O [Example 165, N-ethoxy-4-((4-methyl-2-(N-methylmethanesulfonamido)phenyl)amino)-6-((4-methylthiazol-2-yl)amino)nicotinamide] | < 5.00 | < 5.00 | 
 | CCONC(=O)c1cnc(Nc2ccnn2C)cc1Nc1cc(F)c(C2CC2)cc1N(C)S(C)(=O)=O [Example 168, 4-((4-cyclopropyl-5-fluoro-2-(N-methylmethanesulfonamido)phenyl)amino)-N-ethoxy-6-((1-methyl-1H-pyrazol-5-yl)amino)nicotinamide] | < 5.00 | < 5.00 | 
 | CCONC(=O)c1cnc(Nc2ncccn2)cc1Nc1cc(F)c(C2CC2)cc1N(C)S(C)(=O)=O [Example 169, 4-((4-cyclopropyl-5-fluoro-2-(N-methylmethanesulfonamido)phenyl)amino)-N-ethoxy-6-(pyrimidin-2-ylamino)nicotinamide] | < 5.00 | < 5.00 | 
 | CCONC(=O)c1cnc(Nc2ncc(C)s2)cc1Nc1ccc(OC)cc1N(C)S(C)(=O)=O [Example 172, N-ethoxy-4-((4-methoxy-2-(N-methylmethanesulfonamido)phenyl)amino)-6-(5-methylthiazol-2-ylamino)nicotinamide] | < 5.00 | < 5.00 | 
 | CCONC(=O)c1cnc(Nc2cc(C)nc(C)n2)cc1Nc1ccc(Cl)cc1N(C)S(=O)(=O)C1CC1 [Example 184] | < 5.00 | < 5.00 | 
 | CCONC(=O)c1cnc(Nc2cc(C)nc(C)c2)cc1Nc1ccc(C2CC2)cc1N(C)S(C)(=O)=O [Example 221] | < 5.00 | < 5.00 | 
 | CCONC(=O)c1cnc(Nc2ncc(F)cc2F)cc1Nc1cc(F)c(C(C)C)cc1N(C)S(C)(=O)=O [Example 228, 6-((3,5-difluoropyridin-2-yl)amino)-N-ethoxy-4-((5-fluoro-4-isopropyl-2-(N-methylmethanesulfonamido)phenyl)amino)nicotinamide] | < 5.00 | < 5.00 | 
8.01 | [2H]C([2H])([2H])NC(=O)c1cnc(Nc2ccccn2)cc1Nc1cccc(-c2ncc(F)cn2)c1OC [Example 253, 4-((3-(5-fluoropyrimidin-2-yl)-2-methoxyphenyl)amino)-N-(methyl-d3)-6-(pyridin-2-ylamino)nicotinamide, reference compound] |  |  | 
 | CCONC(=O)c1nnc(Nc2cc(C)nc(C)n2)cc1Nc1cccc(-c2ncc(C)cn2)c1OC [Example 276, 6-((2,6-dimethylpyrimidin-4-yl)amino)-N-ethoxy-4-((2-methoxy-3-(5-methylpyrimidin-2-yl)phenyl)amino)pyridazine-3-carboxamide] | < 5.00 | < 5.00 | 

Source: patent US20240101548A1, “HYDROXAMATE COMPOUND, PREPARATION METHOD THEREFOR AND APPLICATION THEREOF” (SHENZHEN CHIPSCREEN BIOSCIENCES CO., LTD., priority 2020, published 2024)
